One block for each substance: values may come before it.
Test system: IgE antibodies from patients
Assay: Wheat epitope mapping (2): overlapping 10-amino-acid peptide fragments shifted by one amino acid;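 as to Rank of partial sequence as epitope binding to IgE antibody: key = sequence deemed particularly important within the common 15-residue sequence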;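 as to epitope sequence binding to IgE antibody, rank (Key/Preferably/More preferably): key of grades: preferably = shorter partial sequence still acting as epitope; more preferably = sequence improving IgE binding; key = particularly important sequence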
Type: binding, human
Settings: for Epitope sequence binding to IgE antibody, rank of the sequence (Key/Preferably/More preferably/Further preferably): serum of patient P50 (child, general immediate type allergy to wheat)
How it was run: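 Cellulose-bound 10-mer peptides offset by one residue were probed with patient serum IgE and detected by chemiluminescence. Secondary-antibody-only signals were subtracted per peptide. Residual binding was expressed as % of the parent overlapping peptide, scored as none (<30%), poor (30–<50%), somewhat poor (50–<70%) or retained (≥70%).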

[1] = serum of patient P32 (WDEIA), sequence without X
[2] = serum of patient P8 (WDEIA), sequence without X
[3] = serum of patient P16 (WDEIA), sequence without X
[4] = serum of patient P12 (WDEIA), sequence without X
[5] = serum of patient P35 (WDEIA), sequence without X
[6] = serum of patient P21 (WDEIA), sequence without X
[7] = serum of patient P10 (WDEIA), sequence without X
[8] = serum of patient P34 (WDEIA), sequence without X
[9] = serum of patient P26 (WDEIA), sequence without X

epitope sequence binding to IgE antibody, rank (Key/Preferably/More preferably) (serum of patient P4 (WDEIA)): Preferably
Substance: 1904 (QVPLVQQ; REGION 1..7: note = epitope) [compound 1904]

epitope sequence binding to IgE antibody, rank (Key/Preferably/More preferably) (serum of patient P2 (WDEIA)): Preferably
Substance: 1896 (VPLVQQQ; REGION 1..7: note = epitope) [compound 1896]

Epitope sequence binding to IgE antibody, rank of the sequence (Key/Preferably/More preferably) (serum of patient P55 (child, general immediate type allergy to wheat), sequence without X): Preferably
Substance: 2258 (LRGIRNYRVA; REGION 1..10: note = epitope) [compound 2258]

epitope sequence binding to IgE antibody, rank (Key/Preferably/More preferably) (serum of patient P51 (child, general immediate type allergy to wheat)): Preferably
Substance: 1726 (KEAANFTS; REGION 1..8: note = epitope) [compound 1726]

Epitope sequence binding to IgE antibody, rank of the sequence (serum of patient P30 (WDEIA), partial sequence): Preferably
Substance: 2736 (YKIGGIGTVP; REGION 1..10: note = epitope) [compound 2736]

epitope sequence binding to IgE antibody, rank (Key/Preferably/More preferably) (serum of patient P36 (WDEIA)): Preferably
Substance: 1719 (EAANF; REGION 1..5: note = epitope) [compound 1719]

Epitope sequence binding to IgE antibody, rank of the sequence (Key/Preferably/More preferably/Further preferably) (sequence without X): Key
Substance: 2248 (IRNYRVAI; REGION 1..8: note = epitope) [compound 2248]

epitope sequence binding to IgE antibody, rank (Key/Preferably/More preferably) (serum of patient P19 (WDEIA)): Key
Substance: 1860 (TVRTLQ; REGION 1..6: note = epitope) [compound 1860]

Epitope sequence binding to IgE antibody, rank of the sequence (serum of patient P2 (WDEIA), partial sequence): Key
Substance: 2494 (QVSF; REGION 1..4: note = epitope) [compound 2494]

Rank of partial sequence as epitope binding to IgE antibody [6]: More preferably
Substance: 1698 (KEAANFT; REGION 1..7: note = epitope) [compound 1698]

epitope sequence binding to IgE antibody, rank (Key/Preferably/More preferably) (serum of patient G6 (adult, general immediate type allergy to wheat)): Key
Substance: 1749 (EAANFT; REGION 1..6: note = epitope) [compound 1749]

Epitope sequence binding to IgE antibody, rank of the sequence (serum of patient P22 (WDEIA), partial sequence): Key
Substance: 2508 (SQVSF; REGION 1..5: note = epitope) [compound 2508]

Rank of partial sequence as epitope binding to IgE antibody [6]: Preferably
Substance: 1699 (EAANFT; REGION 1..6: note = epitope) [compound 1699]

Epitope sequence binding to IgE antibody, rank of the sequence (serum of patient P16 (WDEIA), partial sequence): Key
Substance: 2642 (KEAAEM; REGION 1..6: note = epitope) [compound 2642]

Epitope sequence binding to IgE antibody, rank of the sequence (Key/Preferably/More preferably) (serum of patient G4 (adult, general immediate type allergy to wheat), sequence without X): Key
Substance: 2302 (IDKRVIERFE; REGION 1..10: note = epitope) [compound 2302]

Epitope sequence binding to IgE antibody, rank of the sequence (serum of patient P8 (WDEIA), partial sequence): Preferably
Substance: 2706 (YKIGGIGTV; REGION 1..9: note = epitope) [compound 2706]

Epitope sequence binding to IgE antibody, rank of the sequence (Key/Preferably/More preferably/Further preferably) (sequence without X): Key
Substance: 2246 (SRLLR; REGION 1..5: note = epitope) [compound 2246]

epitope sequence binding to IgE antibody, rank (Key/Preferably/More preferably) (serum of patient P33 (WDEIA)): Key
Substance: 1881 (TVRTLQR; REGION 1..7: note = epitope) [compound 1881]

epitope sequence binding to IgE antibody, rank (Key/Preferably/More preferably) (serum of patient P12 (WDEIA)): Preferably
Substance: 1923 (QQFPGQQQ; REGION 1..8: note = epitope) [compound 1923]

Epitope sequence binding to IgE antibody, rank of the sequence (Key/Preferably/More preferably) [8]: Key
Substance: 2241 (RLLRGIRN; REGION 1..8: note = epitope) [compound 2241]

Epitope sequence binding to IgE antibody, rank of the sequence (serum of patient P54 (child, general immediate type allergy to wheat), partial sequence): Key
Substance: 2602 (QQSTYQLV; REGION 1..8: note = epitope) [compound 2602]

Epitope sequence binding to IgE antibody, rank of the sequence (Key/Preferably/More preferably) [2]: Preferably
Substance: 2272 (GIDKRVIERF; REGION 1..10: note = epitope) [compound 2272]

Epitope sequence binding to IgE antibody, rank of the sequence (serum of patient P27 (WDEIA), partial sequence): Preferably
Substance: 2569 (QLVQQL; REGION 1..6: note = epitope) [compound 2569]

Epitope sequence binding to IgE antibody, rank of the sequence (Key/Preferably/More preferably) [2]: Key
Substance: 2273 (GIDKRV; REGION 1..6: note = epitope) [compound 2273]

Epitope sequence binding to IgE antibody, rank of the sequence (Key/Preferably/More preferably) [9]: Preferably
Substance: 2286 (DKRVIERFEK; REGION 1..10: note = epitope) [compound 2286]

epitope sequence binding to IgE antibody, rank (Key/Preferably/More preferably) (serum of patient P17 (WDEIA)): Preferably
Substance: 1932 (QVPLVQQQ; REGION 1..8: note = epitope) [compound 1932]

Epitope sequence binding to IgE antibody, rank of the sequence (serum of patient P32 (WDEIA), partial sequence): Preferably
Substance: 2585 (LQQSTYQLVQ; REGION 1..10: note = epitope) [compound 2585]

Epitope sequence binding to IgE antibody, rank of the sequence (serum of patient G7 (adult, general immediate type allergy to wheat), partial sequence): Preferably
Substance: 2543 (VSFQPSQLN; REGION 1..9: note = epitope) [compound 2543]

Epitope sequence binding to IgE antibody, rank of the sequence (serum of patient P26 (WDEIA), partial sequence): Key
Substance: 2648 (NKRSFK; REGION 1..6: note = epitope) [compound 2648]

The next lines start with the substance.

Substance: 1247 (PIQQQP; REGION 1..6: note = epitope) [compound 1247]
Epitope sequence binding to IgE antibody, rank of the sequence [1]: Key

Substance: 1176 (QQFPPQQ; REGION 1..7: note = epitope) [compound 1176]
Epitope sequence binding to IgE antibody, rank of the sequence [2]: Preferably

Substance: 1253 (PIQQQPQPFP; REGION 1..10: note = epitope) [compound 1253]
Epitope sequence binding to IgE antibody, rank of the sequence (serum of patient P36 (WDEIA), sequence without X): Preferably

Substance: 1434 (YLQPQQPI; REGION 1..8: note = epitope) [compound 1434]
Rank of partial sequence as epitope binding to IgE antibody [3]: Preferably

Substance: 1225 (QQPIQQQP; REGION 1..8: note = epitope) [compound 1225]
Epitope sequence binding to IgE antibody, rank of the sequence [4]: Preferably

Substance: 1641 (YNPDKVP; REGION 1..7: note = epitope) [compound 1641]
Rank of partial sequence as epitope binding to IgE antibody [5]: Preferably

Substance: 1444 (YLQPQQPIS; REGION 1..9: note = epitope) [compound 1444]
Rank of partial sequence as epitope binding to IgE antibody [6]: Preferably

Substance: 1477 (YLQPQQPISQ; REGION 1..10: note = epitope) [compound 1477]
Rank of partial sequence as epitope binding to IgE antibody [1]: Preferably

Substance: 1616 (FVPISG; REGION 1..6: note = epitope) [compound 1616]
Rank of partial sequence as epitope binding to IgE antibody (serum of patient P17 (WDEIA), sequence without X): Key

Substance: 1380 (PWQQQPLPPQ; REGION 1..10: note = epitope) [compound 1380]
Epitope sequence binding to IgE antibody, rank of the sequence [7]: Key

Substance: 1483 (YLQPQQPIS; REGION 1..9: note = epitope) [compound 1483]
Rank of partial sequence as epitope binding to IgE antibody [8]: Preferably

Substance: 1663 (YNPDKVPFV; REGION 1..9: note = epitope) [compound 1663]
Rank of partial sequence as epitope binding to IgE antibody (serum of patient G2 (adult, general immediate type allergy to wheat), sequence without X): Preferably

Substance: 1442 (YLQPQQPIS; REGION 1..9: note = epitope) [compound 1442]
Rank of partial sequence as epitope binding to IgE antibody (serum of patient P18 (WDEIA), sequence without X): Key

Substance: 1681 (DKVPF; REGION 1..5: note = epitope) [compound 1681]
Rank of partial sequence as epitope binding to IgE antibody (serum of patient G6 (adult, general immediate type allergy to wheat), sequence without X): Preferably

Substance: 1241 (PIQQQP; REGION 1..6: note = epitope) [compound 1241]
Epitope sequence binding to IgE antibody, rank of the sequence [9]: Key

Substance: 1393 (QPLPPQQQ; REGION 1..8: note = epitope) [compound 1393]
Epitope sequence binding to IgE antibody, rank of the sequence [6]: Preferably

Substance: 1484 (YLQPQQP; REGION 1..7: note = epitope) [compound 1484]
Rank of partial sequence as epitope binding to IgE antibody [8]: Key

Substance: 1425 (YLQPQQPIS; REGION 1..9: note = epitope) [compound 1425]
Epitope sequence binding to IgE antibody, rank of the sequence [4]: Preferably

Substance: 1382 (PWQQQPLPP; REGION 1..9: note = epitope) [compound 1382]
Epitope sequence binding to IgE antibody, rank of the sequence [4]: Key

Substance: 1551 (QQQQFLGQ; REGION 1..8: note = epitope) [compound 1551]
Rank of partial sequence as epitope binding to IgE antibody [8]: Preferably

Substance: 1409 (QPQQPISQQQ; REGION 1..10: note = epitope) [compound 1409]
Epitope sequence binding to IgE antibody, rank of the sequence (serum of patient P3 (WDEIA), sequence without X): Preferably

Substance: 1250 (PQQPP; REGION 1..5: note = epitope) [compound 1250]
Epitope sequence binding to IgE antibody, rank of the sequence (serum of patient P33 (WDEIA), sequence without X): Key

Substance: 1555 (QVPLVQQQ; REGION 1..8: note = epitope) [compound 1555]
Rank of partial sequence as epitope binding to IgE antibody [5]: Preferably

Substance: 1577 (PFPQTQQ; REGION 1..7: note = epitope) [compound 1577]
Rank of partial sequence as epitope binding to IgE antibody [3]: More preferably

Substance: 1661 (FVPISG; REGION 1..6: note = epitope) [compound 1661]
Rank of partial sequence as epitope binding to IgE antibody (serum of patient G1 (adult, general immediate type allergy to wheat), sequence without X): Key

Substance: 1656 (NPDKVPFV; REGION 1..8: note = epitope) [compound 1656]
Rank of partial sequence as epitope binding to IgE antibody (serum of patient P53 (child, general immediate type allergy to wheat), sequence without X): Key

Substance: 1423 (YLQPQ; REGION 1..5: note = epitope) [compound 1423]
Epitope sequence binding to IgE antibody, rank of the sequence [7]: Key

Substance: 1231 (PQQPP; REGION 1..5: note = epitope) [compound 1231]
Epitope sequence binding to IgE antibody, rank of the sequence (serum of patient P13 (WDEIA), sequence without X): Key

Substance: 1218 (PIQQQP; REGION 1..6: note = epitope) [compound 1218]
Epitope sequence binding to IgE antibody, rank of the sequence (serum of patient P9 (WDEIA), sequence without X): Preferably

Reference: patent US20240393292A1, “ALLERGY ANTIGEN AND EPITOPE THEREOF” (HOYU CO., LTD., priority 2019, published 2024)
